Test results as given in US11952356B2, “Crystalline form of 1,4-bis[1,2-benzisoselenazol-3(2H)-one]-butane, method for preparing same and use thereof” (SHANGHAI YUANXI MEDICINE CORP., priority 2019, dated 2024).
Read-outs that look alike come from different tables or passages of the source.

Key:
HBV [1] = assay: HBV RNA assay in cell culture supernatant; format: cell-based
Experimental: (§1) Cell plating: HepAD38 cells were seeded in 24-well plates at a density of 8×10^4 cells/well, each well containing 500 μL of culture medium. Treatment: 9 h after plating, the cells were observed. […] The cells were cultured for 48 h, washed with PBS twice, added with the above drugs, and cultured for another 48 h. After the 48 h, the supernatant was collected, and HBV DNA, HBsAg, and HBeAg in the supernatant were detected. HBV DNA was preferentially determined.
(§2) Procedures for determining HBV DNA, HBV RNA, HBsAg and HBeAg in cell culture supernatant are as follows:
(§3) The cells were transferred to a larger culture dish, and cultured in a culture medium for 3 days. 1 mL of cell supernatant was collected for detecting HBV DNA and HBV RNA. If the detection was not timely performed, the samples were stored at −20° C.
(§4) 1 mL of collected cell culture supernatant and the last PBS washings collected at 48 h were centrifuged at 5000 rpm for 5 min. 200 μL of the supernatant after centrifugation was added to 5 μL of DNaseI+5 μL of DNasel buffer, well mixed and subjected to instantaneous centrifugation. The supernatant was incubated for 1 h at 37° C., mixed once every 30 min, and subjected to instantaneous centrifugation. After 1 h, 5 μL of EDTA was added and the system was incubated at 65° C. for 10 min before the DNaseI reaction was terminated.
(§5) 200 μL of HBV nucleic acid in cell supernatant was concentrated into a system of 20 μL by using a TransGene's HBV nucleic acid extraction kit.
(§6) The supernatant HBV DNA level and the baseline level of plasmid in PBS after DNase treatment were measured by real-time PCR. After reverse transcription of HBV RNA into cDNA, real time PCR was performed to detect the level.
(2) cDNA quantitative system after reverse transcription of HBV RNA: […]

H22 cells = assay: Tumor inhibitory activity assay in H22 mice; format: in vivo, mouse; settings: 180 mg/kg once daily oral gavage; for Tumor growth inhibition: n=10
Experimental: After 2 days of acclimation, qualified animals were randomized into 4 groups with 10 animals each. On day 0, H22 cells were grafted at 1×10^4/mouse subcutaneously at the right axilla. The treatment started at 24 h after grafting. Long and short diameters of tumor were recorded daily and the tumor size was calculated according to the formula: long diameter×short diameter^2×0.5236. The body weight was measured every 2 days. After 21 days of treatment, blood was collected from eyeballs after chloral hydrate anesthesia. The mice were sacrificed and tumors were collected quickly.

[2] = Grinding test, crystalline form by XRD; format: physicochemical
HBV [3] = assay: HBV DNA assay in HepAD38 culture supernatant; format: cell-based; settings: for Supernatant HBV DVA level: HepAD38 cells
Experimental: as §1
HBV DNA assay in culture supernatant: According to TransGen's Viral Nucleic Acid Extraction kit, the nucleic acid was extracted and by SYBR green qPCR, the viral DNA load was determined.
as §2, §3, §4, §5, §6

HBV [4] = assay: HBeAg assay in culture supernatant; format: cell-based
Experimental: as §1
HBsAg and HBeAg assays in culture supernatant: The assay was time-resolved immunofluorescence (ELISA) according to HBsAg and HBeAg assay kits of PE Corporation.
After 48 h, 1 mL of cell culture supernatant was collected for detecting HBsAg and HBeAg. The cells were washed at least 5 times with PBS. 1 mL of the last PBS washings was collected and used as the baseline for determining whether the plasmids were washed away. Note: when washing the cells, PBS was slowly added into the dish along the wall of the dish without resuspending the cells. The dish was then gently shaken to wash the cells, and the residual PBS was discarded after each washing to minimize the plasmid residues.

[5] = Stability test of crystalline form I (XRD after storage); format: physicochemical; settings: 40° C./75% relative humidity and 60° C., 3 to 7 days
[6] = test system: hepatic fibrosis animal model; assay: CCl4-induced hepatic fibrosis animal model; format: in vivo, Balb/c mice; settings: for average body weight / ALB (serum) / ALP (serum) / ALT (serum) / AST (serum) / TGF (serum) / TP (serum) / TrxR1 (serum): end of study; for ALB (serum) / ALP (serum) / ALT (serum) / AST (serum) / TGF (serum) / TP (serum) / TrxR1 (serum): model group = 1.00
Experimental: Animals: Balb/c inbred mice, male, six weeks old, purchased from Peking University, Health Science Center, Department of Laboratory Animal Science, with license number SCXK(Jing)2016-0010. The breeding environment was clean. The accommodation temperature was 25±2° C. The mice were bred in 12-hour light/darkness cycle, and had sufficient food and water supply.
After being prepared into a solution or suspension, the compound was administered to the mice at a dose of 5 mL/Kg.
20 male Balb/c mice aged 6 weeks were randomized into 4 groups. After a staged gradient induction using 25% CCl4 for 4 weeks (three times a week), the treatment started in the BSL (90 mg/kg) group and the BSM (180 mg/kg) group once a day, and the control group and model group were administered with 5‰ CMC-Na solution. After 8 weeks of induction, the mice were sacrificed and the blood was collected and centrifuged at 3000 rpm for 15 min to give the serum for detecting TGF-β1, TrxR1, AST, ALT, ALP, TP and the expression (hepatic fibrosis animal model is shown in FIG. 6). Part of liver was fixed with 4% paraformaldehyde, and subjected to immunohistochemical HE staining and Masson staining. Expressions of α-SMA and Collagen I in liver tissue were detected immunohistochemically. Part of liver was preserved in liquid nitrogen.

[7] = BSL and BSM groups vs model group

O=c1c2ccccc2[se]n1CCCCn1[se]c2ccccc2c1=O [Crystalline form I, 1,4-BIS[1,2-BENZISOSELENAZOL-3(2H)-one]-butane]
Supernatant HBV RNA level (HBV [1]; 0.5 μM): 48% | Supernatant HBV RNA level (HBV [1]; 1.0 μM): 42% | Supernatant HBV RNA level (HBV [1]; 5.0 μM): 43% | Mean tumor weight (H22 cells; after 21 days of treatment): 138.33 mg | Tumor growth inhibition (tumor weight) (H22 cells; after 21 days of treatment): 88.70% | Tumor growth inhibition (tumor weight) (H22 cells; after 21 days of treatment, listed as crystalline form I): up to 88.7% | Tumor growth inhibition (H22 cells; day 9, tumor size): 70.42% | Tumor growth inhibition (H22 cells; day 10, tumor size): 78.32% | Tumor growth inhibition (H22 cells; day 11, tumor size): 76.31% | Tumor growth inhibition (H22 cells; day 12, tumor size): 78.27% | Tumor growth inhibition (H22 cells; day 13, tumor size): 76.03% | Tumor growth inhibition (H22 cells; day 14, tumor size): 72.24% | Tumor growth inhibition (H22 cells; day 15, tumor size): 65.74% | Tumor growth inhibition (H22 cells; day 16, tumor size): 76.97% | Tumor growth inhibition (H22 cells; day 17, tumor size): 78.21% | Tumor growth inhibition (H22 cells; day 18, tumor size): 82.33% | Tumor growth inhibition (H22 cells; day 19, tumor size): 87.15% | Tumor growth inhibition (H22 cells; day 20, tumor size): 88.49% | Tumor growth inhibition (H22 cells; day 21, tumor size): 86.67% | Crystalline form after grinding (XRD) ([2]; listed as Example 1): Crystalline form I | Supernatant HBV DVA level (HBV [3]; 0.5 μM): 62% | Supernatant HBV DVA level (HBV [3]; 1.0 μM): 63% | Supernatant HBV DVA level (HBV [3]; 5.0 μM): 70% | Inhibition effect on HBV DNA (HBV [3]; summary in words): good inhibition effect | Supernatant HBeAg level (HBV [4]; 0.5 μM): 22% | Supernatant HBeAg level (HBV [4]; 1.0 μM): 17% | Supernatant HBeAg level (HBV [4]; 5.0 μM): 43.1%^ | Inhibition effect on supernatant HBeAg (HBV [4]; summary in words): good inhibition effect | XRD pattern after storage [5]: unchanged | average body weight ([6]; BSL 90 mg/kg once a day, n ≥ 4): 17 g | average body weight ([6]; BSL 90 mg/kg): 17.00 ± 0.68 g | ALB (serum) ([6]; BSL 90 mg/kg): 1.83 | ALP (serum) ([6]; BSL 90 mg/kg): 0.82 | ALT (serum) ([6]; BSL 90 mg/kg): 0.48 | AST (serum) ([6]; BSL 90 mg/kg): 0.29 | TGF (serum) ([6]; BSL 90 mg/kg): 0.76 | TP (serum) ([6]; BSL 90 mg/kg): 1.35 | TrxR1 (serum) ([6]; BSL 90 mg/kg): 0.82 | Collagen1 expression in liver (staining) [6, 7]: significantly reduced | HE staining: symptoms of hepatocyte necrosis and inflammation [6, 7]: significantly reduced | Masson staining: fibrosis symptoms [6, 7]: gradually relieved | α-SMA expression in liver (staining) [6, 7]: significantly reduced | average body weight ([6]; BSM 180 mg/kg once a day, n ≥ 4): 18 g | average body weight ([6]; BSM 180 mg/kg): 18.04 ± 2.23 g | ALB (serum) ([6]; BSM 180 mg/kg): 1.47 | ALP (serum) ([6]; BSM 180 mg/kg): 0.73 | ALT (serum) ([6]; BSM 180 mg/kg): 0.39 | AST (serum) ([6]; BSM 180 mg/kg): 0.27 | TGF (serum) ([6]; BSM 180 mg/kg): 0.85 | TP (serum) ([6]; BSM 180 mg/kg): 1.36 | TrxR1 (serum) ([6]; BSM 180 mg/kg): 0.89 | Liver surface symptoms (roughness, granular sensation) ([6]; treatment groups (BSL 90 mg/kg, BSM 180 mg/kg) vs model group): improved

O=c1c2ccccc2[se]n1CCCCn1[se]c2ccccc2c1=O [Crystalline form I-a, 1,4-BIS[1,2-BENZISOSELENAZOL-3(2H)-one]-butane]
Crystalline form after grinding (XRD) [2]: crystalline form I | Crystalline form after grinding (XRD) ([2]; listed as Comparative Example 1): Crystalline form I | Crystalline form after grinding (XRD) ([2]; listed as Comparative Example 2): Crystalline form I | Crystalline form after grinding (XRD) ([2]; listed as Comparative Example 3): Crystalline form I

C=C1[C@H](CO)[C@@H](O)C[C@@H]1n1cnc2c(=O)[nH]c(N)nc21 [ETV, entecavir, reference compound]
Supernatant HBV DVA level (HBV [3]; ETV concentration not given): 80% | Supernatant HBeAg level (HBV [4]; ETV concentration not given): 36.8%
